Patent US20060189608A1, “Methods for treating ocular angiogenesis, retinal edema, retinal ischemia, and diabetic retinopathy using selective RTK inhibitors” (Alcon, Inc., priority 2005, published 2006)

Key:
[1] = Pilot intraocular safety study, single intravitreal injection, adult rat; assay type: in vivo; conditions: single intravitreal injection of 0.1 and 1.0%, up to 1 month postinjection
Source text: Outcome measures were followed up to 1 month postinjection and involved clinical (fundus photography & indirect ophthalmoscopy), functional (electroretinography), and morphologic (histopathology) methods.

[2] = tested on: existing laser-induced choroidal neovascularization (CNV); assay: Laser-induced CNV, oral gavage, regression paradigm, mouse; assay type: in vivo; conditions: for Mean CNV / Median CNV: regression
Description: (§1) Methods. CNV was generated by laser-induced rupture of Bruch's membrane. Briefly, 4 to 5 week old male C57BL/6J mice were anesthetized using intraperitoneal administration of ketamine hydrochloride (100 mg/kg) and xylazine (5 mg/kg) and the pupils of both eyes dilated with topical ocular instillation of 1% tropicamide and 2.5% Mydfin®. One drop of topical cellulose (Gonioscopic®) was used to lubricate the cornea. A hand-held cover slip was applied to the cornea and used as a contact lens to aid visualization of the fundus. Three to four retinal burns were placed in randomly assigned eye (right or left eye for each mouse) using the Alcon 532 nm EyeLite laser with a slit 5 lamp delivery system. The laser burns were used to generate a rupture in Bruch's membrane, which was indicated ophthalmoscopically by the formation of a bubble under the retina. Only mice with laser burns that produced three bubbles per eye were included in the study. Bums were typically placed at the 3, 6, 9 or 12 o'clock positions in the posterior pole of the retina, avoiding the branch retinal arteries and veins.
(§2) Each mouse was randomly assigned into one of the following treatment groups: noninjected controls, sham-injected controls, vehicle-injected mice, or one of three RTKi-injected groups. Control mice received laser photocoagulation in both eyes, where one eye received a sham injection, i.e. a pars plana needle puncture. […] The intravitreal injection was performed immediately after laser photocoagulation. At 14 days post-laser, all mice were anesthetized and systemically perfused with fluorescein-labeled dextran. Eyes were then harvested and prepared as choroidal flat mounts with the RPE side oriented towards the observer. All choroidal flat mounts were examined using a fluorescent microscope. Digital images of the CNV were captured, where the CNV was identified as areas of hyperfluorescence within the pigmented background. Computerized image analysis was used to delineate and measure the two dimensional area of the hyperfluorescent CNV per lesion (um^2) for the outcome measurement. The median CNV area/burn per mouse per treatment group or the mean CNV area/burn per treatment group was used for statistical analysis depending on the normality of data distribution; P≦0.05 was considered significant.
METHODS: CNV was generated by laser-induced rupture of Bruch's membrane as described in Example 3 above. […] The mice received an oral gavage of 0, 1.5, 5, or 10 mg/kg twice per day and for 14 days post-laser. […] Oral gavage dosing was continued twice per day for 14 days post-laser. Several mice were Is euthanized at day 7 post-laser and used for controls. At 14 days post-laser, all mice were anesthetized and systemically perfused with fluorescein-labeled dextran. Eyes were then harvested and prepared as choroidal flat mounts as described in Example 3 above.

[3] = tested on: laser-induced choroidal neovascularization (CNV); assay: Prevention of laser-induced CNV, intravitreal injection, mouse; assay type: in vivo, C57BL/6J mice; conditions: for inhibition of CNV as compared to vehicle-injected eyes: 5 ul intravitreal immediately after laser, 14 days post-laser
Description: as §1, §2

[4] = tested on: existing laser-induced choroidal neovascularization (CNV); assay: Regression of existing laser-induced CNV, intravitreal injection, mouse; assay type: in vivo; conditions: for Mean CNV / Median CNV: intravitreal at day 7, day 14; for inhibition of CNV as compared to vehicle-injected eyes at day 14 post-laser: intravitreal at day 7; for reduction of median CNV area compared to CNV present at 7 days post-laser: intravitreal at day 7, read at day 14
Description: as §1, §2
METHODS: CNV was generated by laser-induced rupture of Bruch's membrane as described above in Example 3. Each mouse was randomly assigned to one of the following treatment groups: noninjected controls, sham-injected controls, vehicle-injected mice, AL-39324 injected groups. Control mice received laser photocoagulation in both eyes, where one eye received a sham injection, i.e. a pars plana needle puncture. […] All mice received laser photocagulation at day 0. For mice randomized to an injection group, a single intravitreal injection was performed at 7 days post-laser. Also at 7 days post-laser, several mice with no-injection were euthanized and their eyes used for controls. At 14 days post-laser, all remaining mice were euthanized and systemically perfused with fluorescein-labeled dextran. Eyes were then harvested and prepared as choroidal flat mounts with the RPE side oriented towards the observer. Choroidal flat mounts were analyzed as described above in Example 3.

[5] = biological target: INSR (Homo sapiens, UniProt P06213); assay: Kinase inhibition profile, non-related TK; assay type: biochemical; conditions: ATP concentration of 1 nM
[6] = tested on: rat model of oxygen-induced retinopathy; assay: Preretinal neovascularization, rat OIR model, intravitreal injection; assay type: in vivo, Sprague-Dawley rats; conditions: for % Inhibition (vs. vehicle-injected eye) / Median NV / NV Range: 5 μl intravitreal; for % Inhibition (vs. vehicle-injected eye): preretinal NV; for Median NV / NV Range: NV clockhour score
Source text: METHODS: Pregnant Sprague-Dawley rats were received at 14 days gestation and subsequently gave birth on Day 22±1 of gestation. Immediately following parturition, pups were pooled and randomized into separate litters (n=17 pups/litter), placed into separate shoebox cages inside oxygen delivery chamber, and subjected to an oxygen-exposure profile from Day 0-14 postpartum. Litters were then placed into room air from Day 14/0 through Day 14/6 (days 14-20 postpartum). Additionally on Day 14/0, each pup was randomly assigned as an oxygen-exposed control or into various treatment groups. […] At Day 14/6 (20 days postpartum), all animals in both studies were euthanized.
Immediately following euthanasia, retinas from all rat pups were harvested, fixed in 10% neutral buffered formalin for 24 hours, subjected to ADPase staining, and fixed onto slides as whole mounts. Digital images were acquired from each retinal flat mount that was adequately prepared. Computerized image analysis was used to obtain a NV clockhour score from each readable sample. Each clockhour out of 12 total per retina was assessed for the presence or absence of preretinal NV. Statistical comparisons using median scores for NV clockhours from each treatment group were utilized in nonparametric analyses. Each noninjected pup represented one NV score by taking the average value of both eyes and was used in comparisons against each dosage group. Because the pups were randomly assigned and no difference was observed between oxygen-exposed control pups from all litters, the NV scores were combined for all treatment groups. P≦0.05 was considered statistically significant.

INSR, sequence (P06213 28-1382): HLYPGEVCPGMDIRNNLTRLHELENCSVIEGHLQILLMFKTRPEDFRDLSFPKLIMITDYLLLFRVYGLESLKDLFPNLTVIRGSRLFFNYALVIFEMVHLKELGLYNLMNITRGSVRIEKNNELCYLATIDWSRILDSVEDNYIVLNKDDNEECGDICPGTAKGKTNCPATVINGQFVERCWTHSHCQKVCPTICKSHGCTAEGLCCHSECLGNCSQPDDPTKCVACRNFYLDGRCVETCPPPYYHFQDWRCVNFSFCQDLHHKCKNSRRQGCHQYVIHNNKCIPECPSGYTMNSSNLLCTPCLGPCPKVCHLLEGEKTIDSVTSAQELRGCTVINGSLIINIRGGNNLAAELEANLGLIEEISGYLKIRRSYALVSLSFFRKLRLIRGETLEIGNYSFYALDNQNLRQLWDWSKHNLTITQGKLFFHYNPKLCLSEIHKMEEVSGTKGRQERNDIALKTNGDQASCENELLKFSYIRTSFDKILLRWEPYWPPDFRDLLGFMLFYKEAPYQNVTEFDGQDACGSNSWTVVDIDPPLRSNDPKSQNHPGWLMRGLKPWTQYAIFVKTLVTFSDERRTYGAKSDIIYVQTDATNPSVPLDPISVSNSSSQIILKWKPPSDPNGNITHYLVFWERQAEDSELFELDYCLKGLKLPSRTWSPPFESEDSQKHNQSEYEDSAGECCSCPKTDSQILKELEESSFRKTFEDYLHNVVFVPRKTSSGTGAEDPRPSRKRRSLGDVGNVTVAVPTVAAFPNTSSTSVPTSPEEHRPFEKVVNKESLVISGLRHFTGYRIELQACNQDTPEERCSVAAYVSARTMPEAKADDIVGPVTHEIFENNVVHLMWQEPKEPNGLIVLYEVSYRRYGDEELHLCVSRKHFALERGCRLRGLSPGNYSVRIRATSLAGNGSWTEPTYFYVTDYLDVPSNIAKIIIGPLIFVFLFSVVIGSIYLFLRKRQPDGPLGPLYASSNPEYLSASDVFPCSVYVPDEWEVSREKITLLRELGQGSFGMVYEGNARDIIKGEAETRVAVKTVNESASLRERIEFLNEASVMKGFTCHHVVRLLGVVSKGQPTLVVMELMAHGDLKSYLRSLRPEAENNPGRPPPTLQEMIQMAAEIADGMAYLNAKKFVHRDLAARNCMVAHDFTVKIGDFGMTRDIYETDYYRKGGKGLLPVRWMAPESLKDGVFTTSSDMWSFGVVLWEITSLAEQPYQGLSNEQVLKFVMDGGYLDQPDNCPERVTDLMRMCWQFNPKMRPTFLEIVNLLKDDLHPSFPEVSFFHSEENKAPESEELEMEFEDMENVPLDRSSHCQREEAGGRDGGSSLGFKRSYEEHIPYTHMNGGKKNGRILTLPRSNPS

Q: Which results are given for `Cc1ccc(F)c(NC(=O)Nc2ccc(-c3cccc4[nH]nc(N)c34)cc2)c1` [AL-39324, N-[4-[3-amino-1H-indazol-4-yl)phenyl]-N′-(2-fluoro-5-methylphenyl)urea]?
A: adverse events (fundus, electroretinography, histopathology) [1]: No significant adverse events; regression of existing CNV ([2]; 3 mg/kg/day oral from day 7 post-laser): did not show a significant regression of existing CNV; Mean CNV ([2]; 3 mg/kg/day oral): 35442 μm^2; Median CNV ([2]; 3 mg/kg/day oral): 33967 μm^2; regression of existing CNV as compared to nontreated controls ([2]; 10 mg/kg/day oral from day 7 post-laser): 41.8%; Mean CNV ([2]; 10 mg/kg/day oral): 29773 μm^2; Median CNV ([2]; 10 mg/kg/day oral): 27389 μm^2; regression of existing CNV as compared to nontreated controls ([2]; 20 mg/kg/day oral from day 7 post-laser): 68.0%; Mean CNV ([2]; 20 mg/kg/day oral): 15706 μm^2; Median CNV ([2]; 20 mg/kg/day oral): 15036 μm^2; CNV versus vehicle injected eyes ([3]; 0.3%, 5 ul intravitreal): marginal statistical difference; mean±s.d. CNV area/burn per mouse ([3]; 0.3%, 5 ul intravitreal): 44283±28886 um^2; median CNV area/burn per mouse ([3]; 0.3%, 5 ul intravitreal): 38891 um^2; mean±s.d. CNV area/burn per mouse ([3]; 1%, 5 ul intravitreal): 21036±3100 um^2; median CNV area/burn per mouse ([3]; 1%, 5 ul intravitreal): 21122 um^2; inhibition of CNV as compared to vehicle-injected eyes ([3]; 1%): 84.1%; mean±s.d. CNV area/burn per mouse ([3]; 3%, 5 ul intravitreal): 27288±12109 um^2; median CNV area/burn per mouse ([3]; 3%, 5 ul intravitreal): 22665 um^2; inhibition of CNV as compared to vehicle-injected eyes ([3]; 3%): 83.0%; Mean CNV ([4]; 1% (2 μl)): 31000 µm²; Median CNV ([4]; 1% (2 μl)): 28300 µm²; Mean CNV ([4]; 1% (5 μl)): 39200 µm²; Median CNV ([4]; 1% (5 μl)): 36400 µm²; inhibition of CNV as compared to vehicle-injected eyes at day 14 post-laser ([4]; 2 μl 1%): 55.9%; reduction of median CNV area compared to CNV present at 7 days post-laser ([4]; 2 μl 1%): 45.4%; Mean CNV ([4]; 3% (5 μl)): 35200 µm²; Median CNV ([4]; 3% (5 μl)): 30600 µm²; inhibition of CNV as compared to vehicle-injected eyes at day 14 post-laser ([4]; 3%): 52.3%; inhibition of CNV as compared to vehicle-injected eyes at day 14 post-laser ([4]; 5 μl 1%): 43.7%; reduction of median CNV area compared to CNV present at 7 days post-laser ([4]; 5 μl 1%): 29.7%; reduction of median CNV area compared to CNV present at 7 days post-laser ([4]; 5 μl 3%): 41.0%; IC50 [5]: > 50 µM; efficacy against preretinal NV ([6]; 0.1% treated eyes): Efficacy was not observed; % Inhibition (vs. vehicle-injected eye) ([6]; 0.1%): 37%; Median NV ([6]; 0.1%): 2.835; NV Range ([6]; 0.1%): 1.1-5.3; % Inhibition (vs. vehicle-injected eye) ([6]; 0.3%): 100%; Median NV ([6]; 0.3%): 0; NV Range ([6]; 0.3%): 0-5; % Inhibition (vs. vehicle-injected eye) ([6]; 0.6%): 100%; Median NV ([6]; 0.6%): 0; NV Range ([6]; 0.6%): 0-1.1; % Inhibition (vs. vehicle-injected eye) ([6]; 1%): 100%; Median NV ([6]; 1%): 0; NV Range ([6]; 1%): 0-2; inhibition of preretinal NV ([6]; between 0.3%-1% suspensions, intravitreal): 100%
